Measurements taken from PMC10453699 (Current Issues in Molecular Biology, 2023).
“And” between values parts separate entries of the source, which are not always exact repeats. Equal values may be shown once. “Also recorded” adds a separate entry of the source. Read-outs that look alike come from different tables or passages of the source.

Legend:
[1] = tested on: COX-2; assay: Western blot of COX-2 protein in TNF-α/IFN-γ-treated HSEIC; type: cell-based, human; conditions: for COX-2 protein levels relative to GAPDH: cotreatment experiments (Figures 7-15), single and combined doses given with the value
[2] = tested on: human small intestinal epithelial cells (HSEIC); conditions: for cell viability (MTT absorbance at 595 nm): vs vehicle control, doses given with the value; for Long-Term Cytotoxicity / Short-Term Cytotoxicity: MTT in HSEIC, N/A = no cytotoxicity seen; for Long-Term Cytotoxicity: doses cytotoxic after long exposure; for Short-Term Cytotoxicity: doses cytotoxic after short exposure; for cytotoxic effects overall (MTT): over all doses and time points tested (24-96 h), or time not stated
[3] = tested on: IL-6; type: cell-based, human; conditions: cotreatment experiments (Figures 7-15), single and combined doses given with the value; vs TNF-α/IFN-γ group
[4] = tested on: porcine intestinal epithelial cells; design: method as in PMID 32735667; conditions: pretreatment with 100 μM; cited from earlier work
[5] = tested on: dextran sulfate sodium-induced colitis; design: method as in PMID 34478286; conditions: 20 mg/kg, consumed orally for 17 days; cited from earlier work
[6] = single ligands (Figure 6), vs TNF-α/IFN-γ group, doses given with the value

Row | SMILES | Most Effective Dose [1] | normalized COX-2 levels (COX-2/GAPDH) [1, 6] | Fold Change of COX-2 [1] | COX-2 protein levels relative to GAPDH ([1]; vs TNF-α/IFN-γ group) | cell viability (MTT absorbance at 595 nm) ([2]; 24 h exposure) | cell viability (MTT absorbance at 595 nm) ([2]; 48 h exposure) | Long-Term Cytotoxicity [2] | Short-Term Cytotoxicity [2] | cytotoxic effects overall (MTT) [2] | IL-6 protein levels relative to GAPDH [3] | cell viability (MTT absorbance at 595 nm) ([2]; 72 h exposure) | cell viability (MTT absorbance at 595 nm) ([2]; 96 h exposure) | COX-2 levels decreased by [1] | also measured
1 | O=C(c1ccc(F)cc1)C1CCN(CCn2c(=O)[nH]c3ccccc3c2=O)CC1 [Ket, ketanserin] | 1 µM | Only 1 (p < 0.0001) and 10 μM (p < 0.01) of ketanserin significantly lowered COX-2 levels and 20 μM of ketanserin led to a significant increase in the normalized COX-2 levels and higher doses significantly increased COX-2 levels |  |  |  |  |  |  |  |  |  |  |  | 
2 | COc1cc(CNC(=O)CCCC/C=C/C(C)C)ccc1O [Cap, capsaicin] | 0.5 µM | a reduction in COX-2 levels was observed only at a dose of 0.5 μM; also recorded: both 0.1 and 1 μM showed a trend towards decreased normalized COX-2/GAPDH levels | −1.6 × | effectively reduced COX-2 levels | 50 μM after 24 h (p < 0.05), 100 μM after 24 and 48 h (p < 0.05), and 200 μM after 24 h (p < 0.01) and 48 h (p < 0.0001) significantly decreased the cell viability | 50 μM after 24 h (p < 0.05), 100 μM after 24 and 48 h (p < 0.05), and 200 μM after 24 h (p < 0.01) and 48 h (p < 0.0001) significantly decreased the cell viability | ≥0.5 µM | ≥50 µM | did not demonstrate significant cytotoxicity in either the short- or long-term doses tested |  |  |  |  | 
3 | CC(=O)Oc1cccc2[nH]cc(CCN(C)C)c12 [4-AcO-DMT, 4-Acetoxy-N,N-dimethyltryptamine] | 20 µM | significant decrease in the relative COX-2 levels at the concentrations of 10 (p < 0.01), 20 (p < 0.0001), and 40 μM and 5 μM significantly increased relative COX-2 levels | −1.5 × | only the combination of 20 μM of 4-AcO-DMT with 0.5 μM of Cap and 40 μM of 4-AcO-DMT significantly reduced the COX-2 levels; also recorded: significantly reduced in the 10 μM of 4-AcO-DMT, 25 μM of Eug, 20 μM of 4-AcO-DMT combined with 25 μM of Eug, 40 μM of 4-AcO-DMT, and 40 μM of 4-AcO-DMT combined with 25 μM of Eug groups | doses of 10, 20, 40, 80, and 160 μM significantly increased the cell viability | doses of 10, 20, 40, 80, and 160 μM significantly increased the cell viability |  |  |  | significantly reduced only in the 20 μM of 4-AcO-DMT combined with 25 μM of Eug, 40 μM of 4-AcO-DMT, and 40 μM of 4-AcO-DMT combined with 25 μM of Eug groups; also recorded: IL-6 was upregulated in the 10 μM of 4-AcO-DMT, 25 μM of Eug, 10 μM of 4-AcO-DMT combined with 25 μM of Eug, and 20 μM of 4-AcO-DMT group | 5 (p < 0.01), 10 (p < 0.0001), 20 (p < 0.01), 40, 80, and 100 μM (p < 0.0001) significantly increased the cell viability | all doses significantly increased (p < 0.0001) the cell viability |  | 
4 | CN(C)CCc1c[nH]c2cccc(OP(=O)(O)O)c12 [Psi, psilocybin] | 40 µM | Psi (40 μM), Cur (0.5 μM), and Eug (50 μM) significantly reduced COX-2 levels without cytotoxic effects | −3.8 × | effectively reduced COX-2 levels and 40 μM psilocybin all significantly decreased the COX-2 levels | significantly increased the number of viable cells at doses of 20 (p < 0.001), 40, 80, and 160 μM | increased the cell viability at 20 (p < 0.01), 40 (p < 0.001), 80, and 160 μM |  |  |  | 20 μM psilocybin and 10 μM psilocybin combined with 0.5 μM curcumin showing the most significant reductions and the 10 μM psilocybin treatment group, which significantly upregulated the IL-6 levels |  | 80 (p < 0.05) and 160 μM (p < 0.0001) of psilocybin for 96 h significantly increased the cell viability |  | normalized COX-2 levels (COX-2/GAPDH) ([1]; single ligands (Figure 6), vs TNF-α/IFN-γ group, doses given with the value, listed as Psilocybin): significant reductions in the normalized COX-2 levels across all concentrations tested (5, 10, 20, and 40 μM)
5 | C=CCc1ccc(O)c(OC)c1 [Eug, eugenol] |  | Psi (40 μM), Cur (0.5 μM), and Eug (50 μM) significantly reduced COX-2 levels without cytotoxic effects | −3.8× | significantly reduced in the 10 μM of 4-AcO-DMT, 25 μM of Eug, 20 μM of 4-AcO-DMT combined with 25 μM of Eug, 40 μM of 4-AcO-DMT, and 40 μM of 4-AcO-DMT combined with 25 μM of Eug groups | 10 (p < 0.01), 100 (p < 0.05), 200 (p < 0.01), 400 (p < 0.001), and 800 (p < 0.0001) μM of eugenol decreased the cell viability | exposure to 50 (p < 0.001), 100 (p < 0.001), 200 (p < 0.0001), 400 (p < 0.0001), and 800 μM (p < 0.0001) for 48 h significantly reduced the cell viability | ≥10 µM | ≥10 µM | demonstrated both short-term and long-term cytotoxic effects | IL-6 was upregulated in the 10 μM of 4-AcO-DMT, 25 μM of Eug, 10 μM of 4-AcO-DMT combined with 25 μM of Eug, and 20 μM of 4-AcO-DMT group | only 200 (p < 0.001), 400 (p < 0.0001), and 800 μM (p < 0.0001) of eugenol significantly reduced the cell viability | all doses reduced the cell viability | 3.8 × | Most Effective Dose ([1]; dose most effective in lowering COX-2 (and IL-6) in TNF-α/IFN-γ-treated HSEIC): 50 µM; normalized COX-2 levels (COX-2/GAPDH) ([1]; single ligands (Figure 6), vs TNF-α/IFN-γ group, doses given with the value, listed as eugenol): remarkable efficacy in reducing the normalized COX-2 levels at all tested concentrations; Long-Term Cytotoxicity ([2]; listed as Eugenol): ≥ 10 µM; Short-Term Cytotoxicity ([2]; listed as Eugenol): ≥ 10 µM; LPS-induced IL-8 and TNF-α transcript levels [4]: significantly suppress the LPS-induced IL-8 and TNF-α transcript levels; pathological scores [5]: reduced the pathological scores
6 | COc1cc(/C=C/C(=O)CC(=O)/C=C/c2ccc(O)c(OC)c2)ccc1O [Cur, curcumin] | 0.5 µM |  |  |  |  | cytotoxic effects across all doses | ≥1 µM | ≥5 µM | most substantial and severe decreases in cell viability were observed at 20, 40, and 80 μM |  | cytotoxic effects across all doses | cytotoxic effects across all doses | 3.8 × | normalized COX-2 levels (COX-2/GAPDH) [1]: Psi (40 μM), Cur (0.5 μM), and Eug (50 μM) significantly reduced COX-2 levels without cytotoxic effects; also recorded: significantly reduced normalized COX-2 levels at concentrations of 0.5 (p < 0.0001), 2.5 (p < 0.01), 5, and 10 μM; Long-Term Cytotoxicity ([2]; listed as Curcumin): ≥ 1 µM; Short-Term Cytotoxicity ([2]; listed as Curcumin): ≥ 5 µM
